From patent publication US20250282764A1, “IMIDAZOLE HETEROCYCLE BASED COMPOUNDS AND METHODS OF TREATING CANCER” (King Abdulaziz University, priority 2024, published 2025)

What was measured:
DLD1 = experiment: Annexin V apoptosis assay (flow cytometry), DLD1; format: cell-based, human; conditions: IC50 and 2×IC50, 48 h, vs basal conditions; dose dependent
Method: (§1) Apoptosis assay for colorectal carcinoma cell lines model was performed as follows. Cells were cultured in T25 culture flasks at a density of 3×10^5 cells for DLD-1, 4×10^5 cells for HCT116, and 5×10^5 cells for HT29 cells and treated with IC50 and 2×IC50 of compound (Id) for 48 h. The experiments were performed in triplicates. To measure apoptosis, an Annexin V APC staining assay (BD Biosciences, San Jose, CA, USA) was performed according to the manufacturer's recommendations, and 10,000 events were acquired using a FACSAria III flow cytometer (BD Biosciences, San Jose, CA, USA).

K562 = experiment: Annexin V/7AAD apoptosis assay, K562; format: cell-based, human; conditions: approximately 2×IC50, 48 h
Method: (§2) Apoptosis assay for leukemia cells was performed as follows. Cells were cultured in 6-well plates at a density of 3× 10^5 cells per well and treated with approximately 2×IC50 values of compound (Id) for 48 h. The experiments were performed in duplicates. To measure apoptosis, Annexin V APC and 7AAD staining (BD Biosciences, San Jose, CA, USA) was performed according to the manufacturer's recommendations, and 10,000 events were acquired using a FACSCanto flow cytometer (BD Biosciences, San Jose, CA, USA).

NB4 = experiment: Annexin V/7AAD apoptosis assay, NB4; format: cell-based, human; conditions: approximately 2×IC50, 48 h
Method: as §2

HCT116 = experiment: Annexin V apoptosis assay (flow cytometry), HCT116; format: cell-based, human; conditions: IC50 and 2×IC50, 48 h, vs basal conditions; dose dependent
Method: as §1

KG1α = experiment: Annexin V/7AAD apoptosis assay, KG1α; format: cell-based, human; conditions: approximately 2×IC50, 48 h
Method: as §2

HL60 = experiment: Annexin V/7AAD apoptosis assay, HL60; format: cell-based, human; conditions: approximately 2×IC50, 48 h
Method: as §2

MV4-11 = experiment: Annexin V/7AAD apoptosis assay, MV4-11; format: cell-based, human; conditions: approximately 2×IC50, 48 h
Method: as §2

CYP2C9 = molecular target: T1, CYP2C9 (Homo sapiens, UniProt P11712); experiment: CYP450 2C9 inhibition; format: in vitro ADME; conditions: recombinant CYP2C9 expressed in insect supersomes, probe 7-methoxy-4-(trifluoromethyl) coumarin, expressed enzyme, fluorescent substrate
T1 construct: purchased Fisher Scientific, Waltham, MA; host or cells: insect cells (supersomes)
T1 sequence (P11712 whole entry): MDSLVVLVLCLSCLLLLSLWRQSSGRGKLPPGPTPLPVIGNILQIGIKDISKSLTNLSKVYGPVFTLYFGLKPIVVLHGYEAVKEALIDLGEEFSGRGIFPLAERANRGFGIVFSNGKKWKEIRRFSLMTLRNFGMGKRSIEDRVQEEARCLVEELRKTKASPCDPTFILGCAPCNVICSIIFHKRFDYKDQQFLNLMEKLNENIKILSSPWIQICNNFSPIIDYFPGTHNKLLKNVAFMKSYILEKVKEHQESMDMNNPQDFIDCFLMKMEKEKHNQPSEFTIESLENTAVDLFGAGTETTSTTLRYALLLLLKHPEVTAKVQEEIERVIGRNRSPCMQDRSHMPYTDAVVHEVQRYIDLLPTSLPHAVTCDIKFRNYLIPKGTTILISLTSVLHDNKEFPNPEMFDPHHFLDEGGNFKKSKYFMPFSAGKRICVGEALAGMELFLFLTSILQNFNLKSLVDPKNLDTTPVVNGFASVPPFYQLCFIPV
Method: (§3) The compound (Id) was assessed for its ability to inhibit the three major human CYP450 enzymes, 3A4, 2D6 and 2C9. Assays were run in triplicate. Expressed enzymes in insect supersomes (Fisher Scientific, Waltham, MA) were used to minimize non-specific binding and membrane partitioning issues. The 3A4 assay uses testosterone as a substrate and analysis was performed by LC/MS/MS on a Waters Xevo TQ instrument as described above using positive electrospray ionization. Assay acceptance criteria was 20% for all standards and 25% for the LLOQ. The 2D6 and 2C9 assays use fluorescent substrates (3-[2-(N,N-diethylamino)ethyl]-7-methoxy-4-methylcoumarin for 2D6; 7-methoxy-4-(trifluoromethyl) coumarin for 2C9) and were analyzed on an Envision plate reader. GraphPad® Prism v 5.04 was used for nonlinear fitting of data to generate IC50 values.

HT29 = experiment: Annexin V apoptosis assay (flow cytometry), HT29; format: cell-based, human; conditions: IC50 and 2×IC50, 48 h, vs basal conditions; dose dependent
Method: as §1

CYP3A4 = molecular target: T2, CYP3A4 (Homo sapiens, UniProt P08684); experiment: CYP450 3A4 inhibition; format: in vitro ADME; conditions: recombinant CYP3A4 expressed in insect supersomes, probe testosterone, expressed enzyme, testosterone substrate
T2 construct: purchased Fisher Scientific, Waltham, MA; host or cells: insect cells (supersomes)
T2 sequence (P08684 whole entry): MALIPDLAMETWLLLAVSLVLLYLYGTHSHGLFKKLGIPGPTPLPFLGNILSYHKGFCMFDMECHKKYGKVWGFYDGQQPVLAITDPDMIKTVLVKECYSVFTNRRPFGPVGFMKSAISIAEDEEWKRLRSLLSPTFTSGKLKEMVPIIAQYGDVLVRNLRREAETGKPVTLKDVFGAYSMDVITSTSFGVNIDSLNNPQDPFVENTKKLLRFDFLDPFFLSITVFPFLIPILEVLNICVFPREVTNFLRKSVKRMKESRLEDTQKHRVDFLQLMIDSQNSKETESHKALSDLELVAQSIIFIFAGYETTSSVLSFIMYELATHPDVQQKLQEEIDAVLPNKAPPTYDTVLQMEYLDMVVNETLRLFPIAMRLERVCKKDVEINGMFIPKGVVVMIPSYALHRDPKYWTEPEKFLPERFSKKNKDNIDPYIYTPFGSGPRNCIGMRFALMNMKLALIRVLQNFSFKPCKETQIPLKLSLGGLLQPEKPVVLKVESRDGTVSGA
Method: as §3

[1] = system: CYP450 metabolizing enzymes (3A4, 2D6, and 2C9); conditions: previous study; cited from earlier work
cell cycle = conditions: concentration of 1 μM; previous study; cited from earlier work
caspase-3 = conditions: concentration of 1 μM; previous study; cited from earlier work
PC3 prostate cancer = conditions: previous study (Khayat et al.); cited from earlier work
[2] = system: NB4, HL60, and KG1a leukemia cell lines; conditions: previous study (Khayat et al.); range over three lines; cited from earlier work
MCF7 breast cancer = conditions: previous study (Khayat et al.); cited from earlier work
[3] = previous study profiling; cited from earlier work

| Structure (SMILES) | apoptosis in DLD1 cells (DLD1) | apoptosis in K562 cells (K562) | apoptosis in NB4 cells (NB4) | apoptosis in HCT116 cells (HCT116) | apoptosis in KG1α cells (KG1α) | apoptosis in HL60 cells (HL60) | apoptosis in MV4-11 cells (MV4-11) | IC50 (CYP2C9) | apoptosis in HT29 cells (HT29) | IC50 (CYP3A4) | substrate for major CYP450 metabolizing enzymes (3A4, 2D6, and 2C9) [1] | effect on cell cycle (cell cycle) | apoptosis (caspase-3) | IC50 (PC3 prostate cancer) | IC50 [2] | IC50 (MCF7 breast cancer) | maximum aqueous solubility [3] |
| --- | --- | --- | --- | --- | --- | --- | --- | --- | --- | --- | --- | --- | --- | --- | --- | --- | --- |
| CC1=N/C(=C\c2ccc(C)o2)C(=O)N1c1ccc(CC(=O)NCc2ccccc2)cc1 [Compound (Id), 2-Methyl-4-(5-methyl-2-furyl)methylene-1-[4-(benzylaminocarbonylmethyl)phenyl]-5-oxo-1H-imidazole] | increased apoptosis | strong apoptosis | strong apoptosis | increased apoptosis | strong apoptosis | strong apoptosis | strong apoptosis | > 10000 nM | increased apoptosis | > 10000 nM |  |  |  |  |  |  |  |
| COc1ccc(/C=C2\N=C(C)N(c3ccc(CC(=O)NCc4ccccc4)cc3)C2=O)cc1 [KIM-161, reference compound] |  |  |  |  |  |  |  |  |  |  | not a substrate | cell cycle arrest at pre-G and G2/M phases | promoted apoptosis through activation of caspase-3 | 2140 nM | 275 to 893 nM | 1140 nM | 19.9 µM |
